Test results published in paper PMC10779170, “Identification of 2,4-Di-tert-butylphenol as a Novel Agonist for Insect Odorant Receptors” (International Journal of Molecular Sciences, 2023).
One block for each molecule: values may come before it.

How the values were obtained:
Assay in all cases: two-electrode voltage clamp, Xenopus oocytes
Type in all cases: cell-based
[1] = molecular target: T1, ORCO + Or1a (Drosophila melanogaster, UniProt Q9VNB5); conditions: agonist; holding potential -80 mV, ND96 pH 7.4, room temperature; unit inferred, μM from text for the ORCO row
T1 construct: heteromer; cRNAs co-injected in Xenopus laevis oocytes (pGEM-HE); for DTBP, site on Orco; with Odorant receptor 1a
T1 sequence (Q9VNB5 1-486): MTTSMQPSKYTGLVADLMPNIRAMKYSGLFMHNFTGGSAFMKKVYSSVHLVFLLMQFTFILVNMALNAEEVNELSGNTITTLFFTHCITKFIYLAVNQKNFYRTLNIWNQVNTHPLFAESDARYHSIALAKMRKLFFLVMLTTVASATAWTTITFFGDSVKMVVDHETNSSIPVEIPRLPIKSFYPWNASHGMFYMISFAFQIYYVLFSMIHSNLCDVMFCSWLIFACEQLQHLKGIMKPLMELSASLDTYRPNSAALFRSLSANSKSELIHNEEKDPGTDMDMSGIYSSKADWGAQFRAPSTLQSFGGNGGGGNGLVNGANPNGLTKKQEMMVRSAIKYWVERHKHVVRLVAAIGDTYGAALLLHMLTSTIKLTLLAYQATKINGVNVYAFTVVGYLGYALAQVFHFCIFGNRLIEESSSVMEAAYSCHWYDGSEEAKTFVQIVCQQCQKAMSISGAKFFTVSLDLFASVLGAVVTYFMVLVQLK
T1 sequence (Q9W5G6 1-392 partner): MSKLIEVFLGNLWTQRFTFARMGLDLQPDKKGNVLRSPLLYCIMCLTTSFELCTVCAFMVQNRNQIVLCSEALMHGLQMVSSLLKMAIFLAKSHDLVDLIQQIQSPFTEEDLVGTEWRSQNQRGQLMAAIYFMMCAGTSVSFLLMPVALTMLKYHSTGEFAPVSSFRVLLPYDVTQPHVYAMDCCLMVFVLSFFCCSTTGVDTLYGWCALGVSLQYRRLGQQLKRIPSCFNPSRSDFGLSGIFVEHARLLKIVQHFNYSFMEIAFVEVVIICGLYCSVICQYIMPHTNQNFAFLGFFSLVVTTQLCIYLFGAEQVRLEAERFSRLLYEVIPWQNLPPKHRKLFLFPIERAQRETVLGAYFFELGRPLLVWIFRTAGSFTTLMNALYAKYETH
From the text: two-electrode voltage clamp, Xenopus oocytes on ORCO + Or1a

[2] = molecular target: T2, ORCO + Or24a (Drosophila melanogaster, UniProt Q9VNB5); conditions: agonist; holding potential -80 mV, ND96 pH 7.4, room temperature
T2 construct: heteromer; cRNAs co-injected in Xenopus laevis oocytes (pGEM-HE); for DTBP, site on Orco; with Odorant receptor 24a
T2 sequence (Q9VNB5 1-486): T1 sequence (Q9VNB5 1-486)
T2 sequence (P81913 1-398 partner): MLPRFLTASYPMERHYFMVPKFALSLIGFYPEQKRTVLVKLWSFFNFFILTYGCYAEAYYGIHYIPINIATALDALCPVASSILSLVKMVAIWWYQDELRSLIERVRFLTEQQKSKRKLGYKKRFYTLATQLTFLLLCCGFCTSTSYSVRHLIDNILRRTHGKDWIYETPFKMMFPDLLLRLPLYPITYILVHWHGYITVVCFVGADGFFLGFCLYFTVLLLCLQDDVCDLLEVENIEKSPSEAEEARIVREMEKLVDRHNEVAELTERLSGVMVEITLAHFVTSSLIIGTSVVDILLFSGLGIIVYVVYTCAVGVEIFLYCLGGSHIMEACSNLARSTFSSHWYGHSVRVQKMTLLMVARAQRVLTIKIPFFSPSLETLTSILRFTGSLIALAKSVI
From the text: two-electrode voltage clamp, Xenopus oocytes on ORCO + Or24a

[3] = molecular target: T3, Orco homomeric receptor (Drosophila melanogaster, UniProt Q9VNB5); conditions: agonist; holding potential -80 mV, ND96 pH 7.4, room temperature
T3 construct: synthesised cDNA in pGEM-HE, cRNA injected in Xenopus laevis oocytes; homotetramer
T3 sequence (Q9VNB5 1-486): T1 sequence (Q9VNB5 1-486)

[4] = molecular target: T4, ORCO + Or35a (Drosophila melanogaster, UniProt Q9VNB5); conditions: agonist; holding potential -80 mV, ND96 pH 7.4, room temperature
T4 construct: heteromer; cRNAs co-injected in Xenopus laevis oocytes (pGEM-HE); for DTBP, site on Orco; with Odorant receptor 35a
T4 sequence (Q9VNB5 1-486): T1 sequence (Q9VNB5 1-486)
T4 sequence (Q9V3Q2 1-409 partner): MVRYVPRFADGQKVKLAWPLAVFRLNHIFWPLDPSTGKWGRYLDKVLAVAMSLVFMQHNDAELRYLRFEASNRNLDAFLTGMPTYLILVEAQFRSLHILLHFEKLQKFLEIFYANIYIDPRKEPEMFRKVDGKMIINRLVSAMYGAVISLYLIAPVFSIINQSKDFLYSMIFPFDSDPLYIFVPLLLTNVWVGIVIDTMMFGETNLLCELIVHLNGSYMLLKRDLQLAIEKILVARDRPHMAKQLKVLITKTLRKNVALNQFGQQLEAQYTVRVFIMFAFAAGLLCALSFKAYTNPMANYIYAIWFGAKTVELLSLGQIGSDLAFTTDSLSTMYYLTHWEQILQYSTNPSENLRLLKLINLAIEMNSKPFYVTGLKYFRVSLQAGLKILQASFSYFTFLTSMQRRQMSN
From the text: two-electrode voltage clamp, Xenopus oocytes on ORCO + Or35a

[5] = molecular target: T5, Orco + Or1a (Drosophila melanogaster, UniProt Q9W5G6); conditions: agonist; 0.3 μM in Figure 2B; holding potential -80 mV, ND96 pH 7.4
T5 construct: same complex as P2, site on OrX; with Odorant receptor coreceptor
T5 sequence (Q9W5G6 1-392): T1 sequence (Q9W5G6 1-392 partner)
T5 sequence (Q9VNB5 1-486 partner): T1 sequence (Q9VNB5 1-486)

[6] = molecular target: T6, Orco + Or35a (Drosophila melanogaster, UniProt Q9V3Q2); conditions: agonist; 10 μM in Figure 2D; holding potential -80 mV, ND96 pH 7.4
T6 construct: same complex as P4, site on OrX; with Odorant receptor coreceptor
T6 sequence (Q9V3Q2 1-409): T4 sequence (Q9V3Q2 1-409 partner)
T6 sequence (Q9VNB5 1-486 partner): T1 sequence (Q9VNB5 1-486)

[7] = molecular target: T7, Orco + Or24a (Drosophila melanogaster, UniProt P81913); conditions: agonist; 0.3 μM in Figure 2C; holding potential -80 mV, ND96 pH 7.4
T7 construct: same complex as P3, site on OrX; with Odorant receptor coreceptor
T7 sequence (P81913 1-398): T2 sequence (P81913 1-398 partner)
T7 sequence (Q9VNB5 1-486 partner): T1 sequence (Q9VNB5 1-486)

EC50 [1]: 104 ± 27.7 µM
EC50 [2]: 51 ± 8.2 µM
EC50 [3]: 13.4 ± 3 µM
EC50 [4]: 38.1 ± 3.8 µM
Compound: CC(C)(C)c1ccc(O)c(C(C)(C)C)c1 [2,4-di-tert-butylphenol]

Compound: CCCCCC(C)=O [2-heptanone]
normalised dose-response curve [5]: illustrate the normalized activation of DTBP and other odorants for each heteromeric receptor

Compound: CCCCC(C)O (stereo not shown) [2-hexanol]
normalised dose-response curve [6]: illustrate the normalized activation of DTBP and other odorants for each heteromeric receptor

Compound: CCCCCCCCO [octanol]
normalised dose-response curve [7]: illustrate the normalized activation of DTBP and other odorants for each heteromeric receptor
